Test results taken from PMC6222898, “Cinnamoyl-Oxaborole Amides: Synthesis and Their in Vitro Biological Activity” (Molecules : A Journal of Synthetic Chemistry and Natural …, 2018).
Values after ≈ are worked out from the molar mass of the structure shown. Like-named read-outs stand apart in the source and are kept apart here.

Legend:
[1] = tested on: Trypanosoma brucei brucei 427 trypomastigotes; experiment: In vitro antitrypanosomal assay (resazurin viability); type: cell-based; conditions: T. b. brucei 427, 24 h incubation
Experimental: Trypanosoma brucei brucei 427 trypomastigotes were cultured in Iscove’sss Modified Dulbecco’s medium (IMDM, Lonza, Basel Switzerland) supplemented with 10% fetal calf serum, HMI-9 supplement, hypoxanthine, and penicillin/streptomycin at 37 °C in a 5% CO2 incubator. […] Reduction of resazurin to resorufin by viable parasites was assessed by fluorescence readings (excitation 560 nm, emission 590 nm) in a Spectramax M3 plate reader (Molecular Devices, San Jose, CA, USA). Fluorescence readings were converted to % parasite viability relative to the average readings obtained from untreated control wells. IC50 values were determined by plotting % viability vs. log[compound] and performing non-linear regression using GraphPad Prism (v. 5.02) software.

[2] = tested on: Trichomonas vaginalis G3 strain; experiment: In vitro antitrichomonal assay (hemocytometer counts); type: cell-based; conditions: 24 h, read-out: IC50 T. vaginalis
[3] = tested on: Mycobacterium tuberculosis H37Rv; experiment: In vitro antimycobacterial broth microdilution assay; type: cell-based; conditions: concentration inhibiting mycobacterial growth by 99%
[4] = In vitro cytotoxicity assay (resazurin); type: cell-based; conditions: human, HeLa cells; 20 μM compound; 48 h exposure, 24 h
Experimental: HeLa cells (Cellonex, Johannesburg, South Africa) seeded in 96-well plates were incubated with 20 μM test compounds for 24 h and cell viability assessed using a resazurin fluorescence assay as previously described.

Dd2 = tested on: Dd2; design: method as in PMID 11310613; conditions: Figure 2; cited from earlier work
[5] = tested on: Trypanosoma brucei brucei 427 trypomastigotes; conditions: cited from earlier work

Compound | IC50 [1] [nM] | melting point [°C] | IC50 [2] [nM] | MIC99 [3] [µM] | viability at 48 h, 20 µM [4] [%] | IC50 (Dd2) [nM] | IC50 antitrypanosomal ([5]; T. b. brucei S427, footnote b: IC50 in μg/mL) | IC50 antitrypanosomal ([5]; T. b. brucei, footnote a: IC50 in μg/mL)
O=C(/C=C/c1cccc([N+](=O)[O-])c1)Nc1ccc2c(c1)B(O)OC2 [Compound 5b, (E)-N-(1-Hydroxy-1,3-dihydrobenzo[c][1,2]oxaborol-6-yl)-3-(3-nitrophenyl)acrylamide] | 130 ± 10 | 176 to 178 | 41700 ± 230 | 107 (≈ 34.7 µg/mL) | 87 ± 1.59 | – | – | –
O=C(/C=C/c1ccc(Br)cc1)Nc1ccc2c(c1)B(O)OC2 [Compound 5d, (E)-3-(4-Bromophenyl)-N-(1-hydroxy-1,3-dihydrobenzo[c][1,2]oxaborol-6-yl)acrylamide] | 470 ± 40 | 206 to 210 | 12600 ± 280 | 10.7 (≈ 3.83 µg/mL) | 89.9 ± 5.12 | – | – | –
CO[C@H]1/C=C/O[C@@]2(C)Oc3c(C)c(O)c4c(O)c(c(/C=N/N5CCN(C)CC5)c(O)c4c3C2=O)NC(=O)/C(C)=C\C=C\[C@H](C)[C@H](O)[C@@H](C)[C@@H](O)[C@@H](C)[C@H](OC(C)=O)[C@@H]1C [RE, rifampicin, reference compound] | – | – | – | 0.003 (≈ 0.00247 µg/mL) | – | – | – | –
O=C(/C=C/c1ccccc1)Nc1ccc2c(c1)B(O)OC2 [Compound 5a, (E)-N-(1-Hydroxy-1,3-dihydrobenzo[c][1,2]oxaborol-6-yl)cinnamamide] | 130 ± 20 | 182 to 184 | 15300 ± 330 | 61.8 (≈ 17.2 µg/mL) | 108 ± 5.35 | – | – | –
Cc1ncc([N+](=O)[O-])n1CCO [ME, metronidazole, reference compound] | – | – | 530 | – | – | – | – | –
COc1ccc(/C=C/C(=O)Nc2ccc3c(c2)B(O)OC3)cc1OC [Compound 5f, (E)-3-(3,4-Dimethoxyphenyl)-N-(1-hydroxy-1,3-dihydrobenzo[c][1,2]oxaborol-6-yl)acrylamide] | 8710 ± 650 | 188 to 190 | > 50000 | – | 109.9 ± 0.84 | – | – | –
CC[C@H]1CN2CCc3cc(OC)c(OC)cc3[C@@H]2C[C@@H]1C[C@H]1NCCc2cc(OC)c(OC)cc21 [EM, emetine, reference compound] | – | – | – | – | 3.19 | – | – | –
Cc1ccc(CC(=O)Nc2ccc(NC(=O)/C=C/c3ccc(OCc4ccccc4)cc3)cc2C(=O)c2ccccc2)cc1 [Compound 4, 2,5-bisacylaminobenzonephone] | – | – | – | – | – | 650 | – | –
O=C(CCc1ccccc1)Nc1ccc2c(c1)B(O)OC2 [Compound 2] | – | – | – | – | – | – | 0.14 ^b μg/mL | –
O=C(/C=C/c1ccc([N+](=O)[O-])cc1)Nc1ccc2c(c1)B(O)OC2 [Compound 5c, (E)-N-(1-Hydroxy-1,3-dihydrobenzo[c][1,2]oxaborol-6-yl)-3-(4-nitrophenyl)acrylamide] | 920 ± 40 | 176 to 180 | 10200 ± 560 | 26.5 (≈ 8.59 µg/mL) | 94.3 ± 28.8 | – | – | –
CC1(C)OB(O)c2cc(NC(=O)c3ccc(F)cc3C(F)(F)F)ccc21 [Compound 1, SCYX-7158] | – | – | – | – | – | – | – | 0.292 ± 0.019 ^a μg/mL
O=C(/C=C/c1ccc2c(c1)OCO2)Nc1ccc2c(c1)B(O)OC2 [Compound 5g, (E)-3-(Benzo[d][1,3]-6-dioxol-5-yl)-N-(1-hydroxy-1,3-dihydrobenzo[c][1,2]oxaborol-6-yl)acrylamide] | 86 ± 2 | 145 to 148 | 22800 ± 1020 | 40.7 (≈ 13.2 µg/mL) | 132 ± 26.6 | – | – | –
COc1ccc(/C=C/C(=O)Nc2ccc3c(c2)B(O)OC3)cc1 [Compound 5e, (E)-N-(1-Hydroxy-1,3-dihydrobenzo[c][1,2]oxaborol-6-yl)-3-(4-methoxyphenyl)acrylamide] | 660 ± 30 | 190 to 192 | 11700 ± 280 | 18.7 (≈ 5.78 µg/mL) | 102 ± 2.34 | – | – | –
N=C(N)c1ccc(OCCCCCOc2ccc(C(=N)N)cc2)cc1 [PE, pentamidine, reference compound] | 1.2 ± 0.1 | – | – | – | – | – | – | –
